From patent publication US7112698B2, “4-(c2-6alkoxy)-substituted chalcones as therapeutic agents” (Spear Therapeutics Limited, priority 2001, dated 2006) come the findings set out here.

Read-outs that look alike come from different tables or passages of the source.

One assay concerns TCDD-induced MCF-7 cells. Nature of the assay: TCDD-induced MCF-7 cell line cytotoxicity assay, MTT. In kind it is cell-based, human. Particulars: for IC50: Homo sapiens, MCF7, MCF-7 cells induced with 10 nM TCDD for 24 hours, 96 hours, MTT; for Tumour Selectivity Differential Factor: MCF-7 IC50 versus TCDD-induced MCF-7 IC50 (Table 1); for more toxic to “tumour” cells than to “normal” cells: TCDD-induced MCF-7 versus MCF-7. The text has this: (§1) CYP1A1 and CYP1B1 enzyme activity is induced by TCDD (tetrachlorodibenzodioxin (Dioxin)) in breast tumour MCF-7 cells (see, e.g., Sutter et al., 1994). CYP1B1 is expressed in a variety of human tumours, and can be inducible by TCDD in numerous cell types including breast, liver, lung, and kidney (see, e.g., Murray et al., 1997). CYP1B1 is known to catalyse estradiol 4-hydroxylation metabolism. In untreated culture, the constitutive rate of estradiol E2 metabolism in MCF-7 cells is minimal. However, treatment with TCDD causes a marked increase in the rate of E2 metabolism (see, e.g., Spink et al., 1994). […] Therefore the cytotoxicity of compounds in non-induced MCF-7 cells correlates to the cytotoxicity of compounds against normal cells, whilst the cytotoxicity of compounds against TCDD-induced MCF-7 cells correlates to the cytotoxicity of compounds against real tumours that express CYP1B1.
(§2) The cytotoxicity of compounds in non-induced MCF-7 cells correlates to the cytotoxicity of compounds against normal cells, whilst the cytotoxicity of compounds against TCDD-induced MCF-7 cells correlates to the cytotoxicity of compounds against real tumours that express CYP1B1.
Cells were maintained in RPMI 1640 with Glutamax 1 (Life Technologies) with 10% (v/v) heat inactivated foetal calf serum (Hybrimax. Sigma), at 37° C., 5% CO2/95% air with 100% humidity and passaged using trypsin/EDTA. 1×10^3 cells were plated out in 100 μl medium per well of 96-well flat-bottomed plates (Fisher). After 4 hours to allow adherance, 100 μl of medium containing TCDD (British Greyhound Chromatography; 10 μM stock in DMSO (dimethylsulfoxide)) or medium with 0.2% (v/v) DMSO as control was added to each well to give a final concentration of 10 nM TCDD, 0.1% (v/v) DMSO, for 24 hours to allow maximal CYP expression. The medium was then carefully aspirated and 100 μl fresh medium added. Within 30 minutes test compound was added in quadruplicate in 100 μl medium (with or without inhibitors) at double the final concentration from 100 mM stock in DMSO to give a final concentration of not more than 0.1% (v/v) DMSO, or DMSO solvent alone at 0.1% (v/v) as control. The cells were then allowed to grow on for 96 hours to give 80–90% confluence in the control wells. 50 μl MTT (Thiazol blue, Sigma) at 2 mg/ml in Dulbecco's phosphate buffered saline-A, was then added to each well for 3 hours. All medium was aspirated, then the formazan product generated by viable cells was solubilized with 150 μl DMSO. Plates were vortexed and the absorbance at 540 nm determined using a plate reader. Results were expressed as the percentage of 100% (control) proliferation and the IC50 calculated using the line of best fit for a sigmoidal dose response curve with variable slope using Graphpad Prizm software. All determinations were carried out in at least triplicate. […]

The test system of another assay is MCF-7 cells. Nature of the assay: MCF-7 cell line (non-induced) cytotoxicity assay, MTT. It counts as cell-based. Particulars: Homo sapiens, MCF7.
Text: as §1, §2
Cells were maintained in RPMI 1640 with Glutamax 1 (Life Technologies) with 10% (v/v) heat inactivated foetal calf serum (Hybrimax. Sigma), at 37° C., 5% CO2/95% air with 100% humidity and passaged using trypsin/EDTA. 1×10^3 cells were plated out in 100 μl medium per well of 96-well flat-bottomed plates (Fisher). After 4 hours to allow adherance, 100 μl of medium containing TCDD (British Greyhound Chromatography; 10 μM stock in DMSO (dimethylsulfoxide)) or medium with 0.2% (v/v) DMSO as control was added to each well to give a final concentration of 10 nM TCDD, 0.1% (v/v) DMSO, for 24 hours to allow maximal CYP expression. The medium was then carefully aspirated and 100 μl fresh medium added. Within 30 minutes test compound was added in quadruplicate in 100 μl medium (with or without inhibitors) at double the final concentration from 100 mM stock in DMSO to give a final concentration of not more than 0.1% (v/v) DMSO, or DMSO solvent alone at 0.1% (v/v) as control. The cells were then allowed to grow on for 96 hours to give 80–90% confluence in the control wells. 50 μl MTT (Thiazol blue, Sigma) at 2 mg/ml in Dulbecco's phosphate buffered saline-A, was then added to each well for 3 hours. All medium was aspirated, then the formazan product generated by viable cells was solubilized with 150 μl DMSO. Plates were vortexed and the absorbance at 540 nm determined using a plate reader. Results were expressed as the percentage of 100% (control) proliferation and the IC50 calculated using the line of best fit for a sigmoidal dose response curve with variable slope using Graphpad Prizm software. All determinations were carried out in at least triplicate.

Where [1] appears, read: non-induced MCF-7 cells, 96 hours, MTT, read-out: MCF-7 Cells IC50.
The mark [2] stands for this setting: prodrug / hydroxylated metabolite illustration, read-out: IC50 in breast cancer MCF-7 cells.

One may read the IC50 as the concentration at which inhibition is half-maximal. On to `CCCOc1ccc(/C=C/C(=O)c2ccc(OC)cc2OC)cc1` [DMU-408, (E)-1-(4-propoxyphenyl)-3-(2,4-dimethoxyphenyl)prop-1-en-3-one], for which the IC50 in the assay with TCDD-induced MCF-7 cells came out at 1300 nM; with MCF-7 cells (setting [1]), 10000 nM. The “Tumour Selectivity Differential Factor” value with TCDD-induced MCF-7 cells was determined as 8.

Consider `COc1ccc(/C=C/C(=O)c2cc(OC)cc(OC)c2)cc1` [(E)-1-(4-methoxyphenyl)-3-(3,5-dimethoxyphenyl)prop-1-en-3-one, reference compound], for which the 50% inhibitory concentration (IC50) in the assay with MCF-7 cells (setting [2]) was 690 nM.

`CCCOc1ccc(/C=C/C(=O)c2cc(OC)c(OC)c(OC)c2)cc1O` [DMU-188, (E)-1-(3-hydroxy4-propoxyphenyl)-3-(3,4,5-trimethoxyphenyl)prop-1-en-3-one]: the concentration for half-maximal inhibition (IC50) with TCDD-induced MCF-7 cells was found to be 600 nM; in the assay with MCF-7 cells (setting [1]), 4500 nM. Also, the “Tumour Selectivity Differential Factor” value in the assay with TCDD-induced MCF-7 cells is 8.

In the case of `CCCCOc1ccc(/C=C/C(=O)c2cc(OC)cc(OC)c2)cc1` [DMU-176, (E)-1-(4-butoxyphenyl)-3-(3,5-dimethoxyphenyl)prop-1-en-3-one], in the assay on TCDD-induced MCF-7 cells, half-maximal inhibition (IC50) required 1100 nM and the “Tumour Selectivity Differential Factor” value came to 18. Moreover, the IC50 in the assay with MCF-7 cells (setting [1]) amounted to 20000 nM.

Consider `CCCOc1ccc(/C=C/C(=O)c2ccc(OC)c(OC)c2OC)cc1` [DMU-420, (E)-1-(4-propoxyphenyl)-3-(2,3,4-trimethoxyphenyl)prop-1-en-3-one], for which the IC50 in the assay on TCDD-induced MCF-7 cells is 3700 nM; with MCF-7 cells (setting [1]) it was 20000 nM. In addition, the “Tumour Selectivity Differential Factor” value in the assay on TCDD-induced MCF-7 cells is recorded as 5.

For the compound `CCCOc1ccc(/C=C/C(=O)c2cc(OC)cc(OC)c2)cc1O` [DMU-185, (E)-1-(3-hydroxy-4-propoxyphenyl)-3-(3,5-dimethoxyphenyl)prop-1-en-3-one], in the assay with TCDD-induced MCF-7 cells, the IC50 worked out at 660 nM and the “Tumour Selectivity Differential Factor” value is 12. The IC50 in the assay on MCF-7 cells (setting [1]) came to 8000 nM.

On to `CCCOc1ccc(/C=C/C(=O)c2cc(OC)c(OC)c(OC)c2)cc1` [DMU-191, (E)-1-(4-propoxyphenyl)-3-(3,4,5-trimethoxyphenyl)prop-1-en-3-one], for which, in the assay on TCDD-induced MCF-7 cells, the half-maximal inhibitory concentration (IC50) is 420 nM, the “Tumour Selectivity Differential Factor” value is on record as 24 and the “more toxic to “tumour” cells than to “normal” cells” value is given as 24 fold. The concentration for half-maximal inhibition (IC50) with MCF-7 cells (setting [1]) came to 10000 nM.

For `COc1cc(OC)cc(C(=O)/C=C/c2ccc(OC)c(O)c2)c1` [(E)-1-(3-Hydroxy-4-methoxyphenyl)-3-(3,5-dimethoxyphenyl)prop-1-en-3-one, reference compound], the half-maximal inhibitory concentration (IC50) with MCF-7 cells (setting [2]) turned out to be 0.65 nM.

With `CCCCOc1ccc(/C=C/C(=O)c2cc(OC)c(OC)c(OC)c2)cc1O` [DMU-189, (E)-1-(3-hydroxy-4-butoxyphenyl)-3-(3,4,5-trimethoxyphenyl)prop-1-en-3-one], in the assay on TCDD-induced MCF-7 cells, inhibition was half-maximal at 2500 nM (IC50) and the “Tumour Selectivity Differential Factor” value came out at 3. In the assay on MCF-7 cells (setting [1]), the IC50 was found to be 8300 nM.

On to `COc1cc(OC)cc(C(=O)/C=C/c2ccc(OC(C)(C)C)cc2)c1` [DMU-402, (E)-1-(4-tertbutoxyphenyl)-3-(3,5-dimethoxyphenyl)prop-1-en-3-one, reference compound], for which, in the assay with TCDD-induced MCF-7 cells, the IC50 worked out at 6200 nM and the “Tumour Selectivity Differential Factor” value was found to be 1. Further, in the assay on MCF-7 cells (setting [1]), the IC50 was found to be 6200 nM.

In the case of `CCCOc1ccc(/C=C(\C)C(=O)c2cc(OC)cc(OC)c2)cc1` [DMU-432, (E)-1-(4-propoxyphenyl)-2-methyl-3-(3,5-dimethoxyphenyl)prop-1-en-3-one], in the assay with TCDD-induced MCF-7 cells, the IC50 stood at 80 nM and the “Tumour Selectivity Differential Factor” value worked out at 9. Besides, the IC50 with MCF-7 cells (setting [1]) is 700 nM.

Take `CCCOc1ccc(/C=C/C(=O)c2cc(OC)ccc2OC)cc1` [DMU-424, (E)-1-(4-propoxyphenyl)-3-(2,5-dimethoxyphenyl)prop-1-en-3-one]: the IC50 in the assay with TCDD-induced MCF-7 cells was 2000 nM; in the assay with MCF-7 cells (setting [1]), 12000 nM. For the same compound, the “Tumour Selectivity Differential Factor” value in the assay with TCDD-induced MCF-7 cells came to 6.

For the compound `CCOc1ccc(/C=C/C(=O)c2cc(OC)cc(OC)c2)cc1` [DMU-174, (E)-1-(4-ethoxyphenyl)-3-(3,5-dimethoxyphenyl)prop-1-en-3-one], in the assay with TCDD-induced MCF-7 cells, the IC50 amounted to 600 nM and the “Tumour Selectivity Differential Factor” value was found to be 3. In the assay with MCF-7 cells (setting [1]), the IC50 worked out at 2000 nM.

In the case of `CCCCOc1ccc(/C=C/C(=O)c2cc(OC)c(OC)c(OC)c2)cc1` [DMU-192, (E)-1-(4-butoxyphenyl)-3-(3,4,5-trimethoxyphenyl)prop-1-en-3-one], in the assay with TCDD-induced MCF-7 cells, it took 1600 nM to reach half-maximal inhibition (IC50) and the “Tumour Selectivity Differential Factor” value is given as 12. Further, in the assay on MCF-7 cells (setting [1]), the IC50 came to 20000 nM.

On to `CCCCOc1ccc(/C=C/C(=O)c2cc(OC)cc(OC)c2)cc1O` [DMU-186, (E)-1-(3-hydroxy-4-butoxyphenyl)-3-(3,5-dimethoxyphenyl)prop-1-en-3-one], for which, in the assay on TCDD-induced MCF-7 cells, half-maximal inhibition (IC50) required 650 nM, the “Tumour Selectivity Differential Factor” value turned out to be 46 and the “more toxic to “tumour” cells than to “normal” cells” value came to 46 fold. For the same compound, the IC50 in the assay on MCF-7 cells (setting [1]) was 30000 nM.

As for `COc1cc(OC)cc(C(=O)/C=C/c2ccc(OC(C)C)cc2)c1` [DMU-401, (E)-1-(4-isopropoxyphenyl)-3-(3,5-dimethoxyphenyl)prop-1-en-3-one], the half-maximal inhibitory concentration (IC50) in the assay on TCDD-induced MCF-7 cells was 800 nM; with MCF-7 cells (setting [1]), 6800 nM. For the same compound, in the assay on TCDD-induced MCF-7 cells, the “Tumour Selectivity Differential Factor” value was 9.

In the case of `CCCOc1ccc(/C=C/C(=O)c2cccc(OC)c2)cc1` [DMU-417, (E)-1-(4-propoxyphenyl)-3-(3-methoxyphenyl)prop-1-en-3-one], in the assay with TCDD-induced MCF-7 cells, the half-inhibitory concentration (IC50) worked out at 10000 nM and the “Tumour Selectivity Differential Factor” value turned out to be 3. Moreover, the 50% inhibitory concentration (IC50) in the assay with MCF-7 cells (setting [1]) turned out to be 28000 nM.

For the compound `CCOc1ccc(/C=C/C(=O)c2cc(OC)c(OC)c(OC)c2)cc1` [DMU-190, (E)-1-(4-ethoxyphenyl)-3-(3,4,5-trimethoxyphenyl)prop-1-en-3-one], in the assay with TCDD-induced MCF-7 cells, 390 nM corresponded to half-maximal inhibition (IC50) and the “Tumour Selectivity Differential Factor” value is reported as 2. In addition, in the assay with MCF-7 cells (setting [1]), the IC50 is 750 nM.
